We go through eight compounds from ChEMBL document CHEMBL1127397, “The synthesis of nucleoside 5'-O-(1,1-dithiotriphosphates)” (J Med Chem, 1994).

Assay [1] has as its system CCRF-CEM. Description: Tested for the ability to inhibit HIV-2 (ROD) replication in CEM cells. It counts as functional, cell-based. Conditions: Homo sapiens.
Assay [2] deals with CCRF-CEM. Description: Tested for the ability to inhibit HIV-1 (IIIB) replication in CEM cells. The format is functional, cell-based. Conditions: Homo sapiens.
The target in assay [3] is Human immunodeficiency virus type 1 reverse transcriptase (Human immunodeficiency virus 1, UniProt Q72547). Description: Tested against HIV-1 reverse transcriptase (HIV-1 RT) with poly(rA)/(dT)12-18 as template and [methyl-3H]-dTTP as competing substrate. The format is functional.

Values after ≈ are worked out from the molar mass of the structure shown.

As usually defined, the EC50 is the concentration giving half of the maximal effect. A higher EC50 goes with a need for much substance. As for `Nc1ncnc2c1ncn2C1O[C@H](COP(=S)(S)OP(=O)(O)OP(=O)(O)O)[C@@H](O)[C@H]1O` (stereo not given in full), the EC50 with CCRF-CEM [1] turned out to be 116 µg/mL (≈ 215 µM); with CCRF-CEM [2] it was 42 µg/mL (≈ 77.9 µM).
For `Nc1ncnc2c1ncn2[C@H]1CC(O)C(COP(=S)(S)OP(=O)(O)OP(=O)(O)O)O1` (stereo not given in full), the EC50 with CCRF-CEM [1] came to 50 µg/mL (≈ 95.5 µM); with CCRF-CEM [2], 43 µg/mL (≈ 82.2 µM).
As a reminder, the IC50 is the concentration that gives 50% inhibition. Lower therefore signals greater potency in that assay. `Cc1cn([C@H]2C[C@H](N=[N+]=[N-])[C@@H](CO[P@](=O)(O)O[P@](=O)(O)OP(=O)(O)O)O2)c(=O)[nH]c1=O` [ZIDOVUDINE TRIPHOSPHATE]: the IC50 in assay [3] stood at 3 nM.
Regarding `Cc1cn([C@H]2CC(O)C(COP(=S)(S)OP(=O)(O)OP(=O)(O)O)O2)c(=O)[nH]c1=O` (stereo not given in full), the EC50 in the assay on CCRF-CEM [1] and with CCRF-CEM [2] was above 50 µg/mL throughout.
Regarding `Nc1nc(O)c2ncn(C3O[C@H](COP(=S)(S)OP(=O)(O)OP(=O)(O)O)[C@@H](O)[C@H]3O)c2n1` (stereo not given in full), the EC50 with CCRF-CEM [1] and in the assay with CCRF-CEM [2] was above 50 µg/mL each time.
Regarding `Nc1nc(O)c2ncn([C@H]3CC(O)C(COP(=S)(S)OP(=O)(O)OP(=O)(O)O)O3)c2n1` (stereo not given in full), the EC50 in the assay with CCRF-CEM [1] and in the assay with CCRF-CEM [2] was above 50 µg/mL throughout.
In the case of `Nc1ccn([C@H]2CC(O)C(COP(=S)(S)OP(=O)(O)OP(=O)(O)O)O2)c(=O)n1` (stereo not given in full), the EC50 is 123 µg/mL (≈ 246 µM) with CCRF-CEM [1] and 97 µg/mL (≈ 194 µM) in the assay with CCRF-CEM [2].
`Cc1cn([C@H]2CC(N=[N+]=[N-])C(COP(=S)(S)OP(=O)(O)OP(=O)(O)O)O2)c(=O)[nH]c1=O` (stereo not given in full) showed a concentration for half-maximal inhibition (IC50) in assay [3] of 940 nM. A half-maximal effect in the assay on CCRF-CEM [2] (EC50) was put at 0.5 µg/mL (≈ 0.927 µM).
